Data set [1] deals with HCA7 human colon tumor cell line. Put plainly: XTT cell viability (antitumoral activity), HCA7. It counts as cell-based. Particulars: HCA-7, incubation time (4 h or 60 h) not stated, read-out: CI50 (μM) colon HCA7. On the procedure:
(§1) The antitumor activity of inventive compounds was evaluated measuring cell metabolic capacity (viability), using the XTT kit and following the recommendations of the manufacturer (Roche Diagnostics). The assays were carried out a minimum of five times, with controls containing unexposed cells, cells with vehicle, or media plus compound. Cells were seeded into 96-well plates in 100 μl of media and incubated for 24 h. Afterwards, the inventive compounds were added at different combination of concentrations (from 1 μM to 80 μM) for 4 h (short time XTT) or 60 h (long time XTT). At the end of the incubation period, 50 μl of a mixture containing XTT and electron coupling reagent to each well were added. After 4 h of incubation at 37° C. the absorbance at 490 nm was noted. The growth inhibitory activity of each compound, was obtained subtracting the absorbance of the blanks and expressed as percentage of cell growth inhibition, as compared with untreated controls. The inhibitory concentration 50 (IC50) was determined from the dose-response curves of compound concentration versus percentage of cell viability with the Hill sigmoidal equation (three parameters), using Sigmaplot 5.0 software.

Data set [2] concerns NC59 human colon tumor cell line. Put plainly: XTT cell viability (antitumoral activity), NC59. It is filed as cell-based. Conditions: incubation time (4 h or 60 h) not stated, read-out: CI50 (μM) colon NC59. The procedure:
as §1
On the technique in general: Tetrazolium dyes change colour on reduction, which living cells bring about.

Data set [3] relates to PC3 human prostata tumor cell line. Put plainly: XTT cell viability (antitumoral activity), PC3. It counts as cell-based. Conditions: incubation time (4 h or 60 h) not stated, read-out: CI50 (μM) prostata PC3. The procedure: as §1
Data set [4] relates to HT29 human colon tumor cell line. Put plainly: XTT cell viability (antitumoral activity), HT29. It is filed as cell-based. Conditions: HT-29, incubation time (4 h or 60 h) not stated, read-out: CI50 (μM) colon HT29. On the procedure: as §1
A further data set has as its target T1, COX-2 (Homo sapiens, UniProt P35354).
T1 sequence (P35354 18-604): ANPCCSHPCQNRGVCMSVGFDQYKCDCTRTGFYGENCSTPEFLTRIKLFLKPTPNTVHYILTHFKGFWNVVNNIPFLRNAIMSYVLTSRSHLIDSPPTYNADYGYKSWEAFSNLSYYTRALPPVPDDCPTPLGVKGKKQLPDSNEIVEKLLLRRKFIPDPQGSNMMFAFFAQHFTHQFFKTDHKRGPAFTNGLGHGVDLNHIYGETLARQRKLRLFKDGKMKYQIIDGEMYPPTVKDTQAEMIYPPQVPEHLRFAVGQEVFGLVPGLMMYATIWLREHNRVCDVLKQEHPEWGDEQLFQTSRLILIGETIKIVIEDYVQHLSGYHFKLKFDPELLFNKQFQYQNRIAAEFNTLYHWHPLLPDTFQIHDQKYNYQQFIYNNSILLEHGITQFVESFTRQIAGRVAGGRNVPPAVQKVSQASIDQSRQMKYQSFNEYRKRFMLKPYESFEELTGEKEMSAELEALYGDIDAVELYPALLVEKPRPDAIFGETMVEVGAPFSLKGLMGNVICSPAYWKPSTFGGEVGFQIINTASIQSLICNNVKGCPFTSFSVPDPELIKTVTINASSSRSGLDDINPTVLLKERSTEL
Put plainly: Inhibition of enzyme COX-2. It counts as biochemical.

Another data set addresses COX-1 (Homo sapiens, UniProt P23219). Put plainly: Inhibition of enzyme COX-1. It is filed as biochemical.

The text below walks through data of patent US20050182119A1, “Substituted pyrazoline derivatives” (priority 2004, published 2005).

As usually defined, the melting point is the temperature, or range, at which the solid turns liquid.

Sequence of COX-1 (P23219 24-599): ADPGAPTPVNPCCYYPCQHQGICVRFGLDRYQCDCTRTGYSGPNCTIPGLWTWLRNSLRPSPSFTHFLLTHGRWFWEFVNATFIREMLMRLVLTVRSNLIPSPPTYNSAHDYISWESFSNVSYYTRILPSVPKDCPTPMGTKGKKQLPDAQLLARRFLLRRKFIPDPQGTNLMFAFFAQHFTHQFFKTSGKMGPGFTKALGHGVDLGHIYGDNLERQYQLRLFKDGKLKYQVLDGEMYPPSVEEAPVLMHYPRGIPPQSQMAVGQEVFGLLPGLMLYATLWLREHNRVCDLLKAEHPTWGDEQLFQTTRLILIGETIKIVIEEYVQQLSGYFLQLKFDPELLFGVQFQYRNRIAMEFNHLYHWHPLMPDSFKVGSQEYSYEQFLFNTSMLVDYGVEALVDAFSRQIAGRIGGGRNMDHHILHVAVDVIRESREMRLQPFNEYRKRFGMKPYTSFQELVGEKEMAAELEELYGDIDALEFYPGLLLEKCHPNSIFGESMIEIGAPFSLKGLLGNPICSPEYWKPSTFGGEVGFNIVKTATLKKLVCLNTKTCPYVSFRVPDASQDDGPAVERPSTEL

Take `Cc1ccc(-c2cc(C(F)(F)F)nn2-c2ccc(S(N)(=O)=O)cc2)cc1` [Celecoxib, reference compound]: the IC50 in data set [1] worked out at 26.5 µM; in data set [2], 18.2 µM; in data set [3], 30.6 µM; in data set [4], 21.5 µM.
Regarding `Cc1ccc(C)c(C2CC(C(F)(F)F)=NN2c2ccc(S(N)(=O)=O)cc2)c1` (stereo not drawn) [Example 1, 4-[5-(2,5-dimethyl-phenyl)-3-trifluoromethyl-4,5-dihydro-pyrazol-1-yl]-benzenesulfonamide], the melting point was 200 to 202 °C. Further, at COX-2, the “inhibiting activity of enzyme COX-2” value was “do not display any inhibiting activity”. In addition, the IC50 in data set [1] came out at 10.5 µM. In addition, the IC50 in data set [2] came to 16.3 µM. In addition, at COX-1, the “inhibiting activity of enzyme COX-1” value is “do not display any inhibiting activity”. The IC50 in data set [3] was found to be 12.3 µM. Also, in data set [4], the IC50 is 14.9 µM.
For the molecule `NS(=O)(=O)c1ccc(N2N=C(C(F)(F)F)CC2c2cc(C(F)(F)F)cc(C(F)(F)F)c2)cc1` (stereo not drawn) [Example 2, 4-[5-(3,5-bis-trifluoromethyl-phenyl)-3-trifluoromethyl-4,5-dihydro-pyrazol-1-yl]-benzenesulfonamide], the melting point fell in the range of 195 to 197 °C. Moreover, at COX-2, the “inhibiting activity of enzyme COX-2” value is reported as “do not display any inhibiting activity”. Further, the “inhibiting activity of enzyme COX-1” value against COX-1 is “do not display any inhibiting activity”. In addition, the IC50 in data set [3] was found to be 10.6 µM.
